# Results as given in paper PMC3933301 (Journal of medicinal chemistry, 2013).
# Entries after “also recorded” stand apart in the source; their conditions may differ. Read-outs that look alike come from different tables or passages of the source.
# Assays:
# Mtb H37Rv [1] = assay: Microplate Alamar Blue Assay; format: cell-based, Mycobacterium tuberculosis
# Mtb FtsZ [2] = target: T1, Mtb FtsZ (Mycobacterium tuberculosis, UniProt P9WN95); assay: Mtb-FtsZ polymerization inhibitory assay; format: biochemical; conditions: FtsZ 15 µM, GTP 50 µM, 25 °C
# T1 sequence (P9WN95 whole entry): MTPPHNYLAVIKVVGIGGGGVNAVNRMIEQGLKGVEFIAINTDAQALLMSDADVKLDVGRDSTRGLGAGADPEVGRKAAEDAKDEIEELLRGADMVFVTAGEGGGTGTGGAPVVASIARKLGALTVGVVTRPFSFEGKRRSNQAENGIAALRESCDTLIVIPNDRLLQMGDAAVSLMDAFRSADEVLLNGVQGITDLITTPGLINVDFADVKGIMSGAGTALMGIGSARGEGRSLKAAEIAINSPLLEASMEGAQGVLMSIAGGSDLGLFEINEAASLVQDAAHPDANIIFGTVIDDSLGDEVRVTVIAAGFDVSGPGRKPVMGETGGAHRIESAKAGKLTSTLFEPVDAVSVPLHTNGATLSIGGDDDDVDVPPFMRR
# Mtb FtsZ [3] = target: T1, Mtb FtsZ; format: biochemical; conditions: for TEM: effect on GTP-initiated FtsZ polymerization: FtsZ 5 µM, GTP 25 µM
# Cytotoxicity assay = format: cell-based; conditions: Cercopithecus aethiops (African green monkey)
# Mtb [4] = conditions: cited from earlier work
# non-replicating Mtb = conditions: grown under low oxygen conditions; cited from earlier work
# Mtb H37Rv [5] = conditions: early leads of previous study, Figure 1; cited from earlier work
# Mtb [6] = conditions: standard acute infection model, immune incompetent GKO mice; cited from earlier work
structure (smiles),measurement,setting,value
"CCCCOC(=O)Nc1cc2nc(C3CCCCC3)[nH]c2cc1N(C)C [Compound 5f, 5-Butyloxycarbonylamino-2-cyclohexyl-6-N,N-dimethylamino-1H-benzo[d]imidazole]",Potency relative to 1 (Mtb H37Rv MIC),Mtb H37Rv [1],11 times
same,Inhibition of Mtb FtsZ polymerization (light scattering),Mtb FtsZ [2],inhibit the assembly of Mtb FtsZ in a dose dependent manner; also recorded: effective dose-dependent inhibition
same,TEM: effect on preformed FtsZ polymers,Mtb FtsZ [3]; 5f 40 µM or 80 µM added after polymerization with GTP 25 µM,capable of disrupting the formed FtsZ polymers and aggregates; also recorded: effectively disassembled
same,TEM: effect on GTP-initiated FtsZ polymerization,Mtb FtsZ [3]; 5f 40 µM,"reduction in the density and population of FtsZ polymers, protofilaments and aggregates"
same,TEM: effect on GTP-initiated FtsZ polymerization,Mtb FtsZ [3]; 5f 80 µM,more apparent
"CN(C)c1cc2[nH]c(C3CCCCC3)nc2cc1NC(=O)OCC(F)(F)F [Compound 5p, 2-Cyclohexyl-5-trifluoroethoxycarbonylamino-6-N,N-dimethylamino-1H-benzo[d]imidazole]",IC50,Cytotoxicity assay,> 100 µg/mL
same,Inhibition of Mtb FtsZ polymerization (light scattering),Mtb FtsZ [2],inhibit the assembly of Mtb FtsZ in a dose dependent manner; also recorded: effective dose-dependent inhibition
"CCc1ccc(C(=O)Nc2cc3nc(C4CCCCC4)[nH]c3cc2N(C)C)cc1 [Compound 7c-6, 2-Cyclohexyl-5-(4-ethylbenzamido)-6-N,N-dimethylamino-1H-benzo[d]imidazole]",Inhibition of Mtb FtsZ polymerization (light scattering),Mtb FtsZ [2],inhibit the assembly of Mtb FtsZ in a dose dependent manner; also recorded: effective dose-dependent inhibition
"CCN(CC)c1cc2[nH]c(C3CCCCC3)nc2cc1NC(=O)OCC(F)(F)F [Compound 5n, 2-Cyclohexyl-6-N,N-diethylamino-5-trifluoroethoxycarbonylamino-1H-benzo[d]imidazole]",IC50,Cytotoxicity assay,> 100 µg/mL
"O=C(Nc1cc2nc(C3CCCCC3)[nH]c2cc1N1CCCC1)OCC(F)(F)F [Compound 5o, 2-Cyclohexyl-5-trifluoroethoxycarbonylamino-6-prrolidinyl-1H-benzo[d]imidazole]",IC50,Cytotoxicity assay,> 100 µg/mL
CCCCOC(=O)Nc1cc2nc(C3CCCCC3)[nH]c2cc1N1CCCC1 [Compound 2],Bactericidal activity,Mtb [4],bactericidal
same,Activity against non-replicating Mtb,non-replicating Mtb,active
CCCCOC(=O)Nc1cc2nc(C3CCCCC3)[nH]c2cc1N(CC)CC [Compound 1],MIC,"Mtb H37Rv [1]; Mycobacterium tuberculosis, H37RV, read-out: Mtb H37Rv MIC",0.63 µg/mL
same,MIC of early lead compounds,Mtb H37Rv [5],0.63 µg/mL
same,Bactericidal activity,Mtb [4],bactericidal
same,Activity against non-replicating Mtb,non-replicating Mtb,active
same,Efficacy in vivo,Mtb [6],good efficacy
